Several values for one entry are separate records, joined by “and”; a condition that tells them apart may be missing. Identical values can stand only once.
Columns and labels:
rat VMAT2 = rat VMAT2 (Rattus norvegicus, UniProt Q01827); assay: FFN206 uptake assay in transfected Hek293 cells
rat VMAT2-His = molecular target: T1, rat VMAT2-His (Rattus norvegicus, UniProt Q01827); assay: Differential scanning fluorimetry (DSF) with CPM dye: change of melting temperature of purified VMAT2; type: binding
T1 construct: The ORF of rat VMAT2 was subcloned into a pFastBac vector; His; made in house; host or cells: Sf9 insect cells (baculovirus)
How it was run: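 Rat VMAT2-His from Sf9 baculovirus cells, purified by IMAC and SEC in DDM/CHS micelles, was screened by CPM-dye DSF over a 25–95 °C ramp at 2 °C/min. Tm was taken from the second derivative of the melting curve. Hits were validated in triplicate at 200 μM, with ΔTm > 5× SD as the cutoff.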

rat VMAT2 Y434A = rat VMAT2 Y434A (Rattus norvegicus, UniProt Q01827, Y434A); assay: FFN206 uptake assay, VMAT2 mutant
Protocol: (§1) For activity assays, [^3H]-DTBZ and [^3H]-SMT binding and competition assays (see section below), several VMAT2 mutants were prepared. […] In addition, a selection of rVMAT2 mutants carrying mutations designed from binding modes identified by docking and MD-simulation was prepared in a pcDNA3.1 rVMAT2-Strep tag II plasmid.

VMAT2 [1] = molecular target: T2, VMAT2 (Rattus norvegicus, UniProt Q01827); conditions: hek293 cells, 50 µM
Protocol: (§2) We preincubated cells expressing VMAT2 with 50 μM compounds and measured [^3H]-DTBZ binding (5 nM) to the sample (Fig. 3a). […] Hek293 cells were grown and transfected with pcDNA3.1 VMAT2-His as described above. Two days after transfection, cells were harvested, washed and transferred to 96 well MultiScreen FB filter plates (Millipore). […] Cells were washed 3 times with ice cold PBS and 50 µl Ultima Gold LLL (PerkinElmer) was added to each well. […] After a 20 min incubation at 37 °C, cells were washed and [^3H] scintillation counting was performed as described above.

rat VMAT2 P314A = rat VMAT2 P314A (Rattus norvegicus, UniProt Q01827, P314A); assay: FFN206 uptake assay, VMAT2 mutant
Protocol: as §1

human VMAT1 = molecular target: T3, human VMAT1 (Homo sapiens, UniProt P54219); assay: FFN206 uptake assay in transfected Hek293 cells; type: cell-based; conditions: Table S1, substrate uptake assays in transfected Hek293 cells
T3 construct: expressed in transfected cells; host or cells: Hek293 cells, transient
T3 sequence (P54219 1-525): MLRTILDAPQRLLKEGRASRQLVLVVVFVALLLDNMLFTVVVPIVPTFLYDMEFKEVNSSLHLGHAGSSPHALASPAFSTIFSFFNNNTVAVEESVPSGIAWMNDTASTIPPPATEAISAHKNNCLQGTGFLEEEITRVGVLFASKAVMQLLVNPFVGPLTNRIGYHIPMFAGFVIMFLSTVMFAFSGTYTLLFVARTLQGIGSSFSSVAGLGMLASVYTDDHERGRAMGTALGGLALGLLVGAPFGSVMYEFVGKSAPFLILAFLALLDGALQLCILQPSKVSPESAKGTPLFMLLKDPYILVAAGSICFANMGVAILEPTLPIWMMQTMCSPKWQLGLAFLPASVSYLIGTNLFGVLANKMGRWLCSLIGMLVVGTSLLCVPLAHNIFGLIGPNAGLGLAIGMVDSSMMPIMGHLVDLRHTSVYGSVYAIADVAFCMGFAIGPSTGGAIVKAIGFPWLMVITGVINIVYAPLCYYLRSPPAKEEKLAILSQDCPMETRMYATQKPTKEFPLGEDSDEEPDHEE

rat VMAT2 Q143A = rat VMAT2 Q143A (Rattus norvegicus, UniProt Q01827, Q143A); assay: FFN206 uptake assay, VMAT2 mutant
Protocol: as §1

human VMAT2 = molecular target: T4, human VMAT2 (Homo sapiens, UniProt Q05940); assay: FFN206 uptake assay in transfected Hek293 cells; type: cell-based; conditions: Table S1, substrate uptake assays in transfected Hek293 cells
T4 construct: expressed in transfected cells; host or cells: Hek293 cells, transient

VMAT2 [2] = molecular target: T2, VMAT2; assay: [3H]-DTBZ competition assay in Hek293 cells expressing VMAT2;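 as to all read-outs here: HEK293 cells transfected with VMAT2, pretreated 30 min with compound, then given 5 nM [3H]-DTBZ for 20 min at 37 °C, bound label read by scintillation counting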; conditions: for [3H]-DTBZ binding relative to no compound (=1), replicate samples: Fig. 3b source data
Protocol: as §2

Sequence of rat VMAT2 (Q01827 whole entry): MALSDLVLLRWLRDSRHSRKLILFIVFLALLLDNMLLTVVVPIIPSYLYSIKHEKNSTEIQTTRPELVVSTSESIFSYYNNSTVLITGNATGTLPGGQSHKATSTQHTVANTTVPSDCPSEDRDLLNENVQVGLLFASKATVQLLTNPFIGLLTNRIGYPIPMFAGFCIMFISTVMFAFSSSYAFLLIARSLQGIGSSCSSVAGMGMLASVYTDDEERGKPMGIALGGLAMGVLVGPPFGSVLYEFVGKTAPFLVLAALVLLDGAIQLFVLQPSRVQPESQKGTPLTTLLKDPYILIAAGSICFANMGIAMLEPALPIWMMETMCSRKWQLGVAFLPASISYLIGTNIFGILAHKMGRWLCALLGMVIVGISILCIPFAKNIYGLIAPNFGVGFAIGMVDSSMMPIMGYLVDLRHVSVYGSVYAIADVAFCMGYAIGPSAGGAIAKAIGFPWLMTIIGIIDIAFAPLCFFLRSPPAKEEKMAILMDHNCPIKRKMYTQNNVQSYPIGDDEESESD
T1 sequence (Q01827 whole entry): as above
T2 sequence (Q01827 whole entry): as above
Sequence of rat VMAT2 P314A (Q01827 whole entry P314A): as the sequence (Q01827 whole entry) above, with P314A counted along it
Sequence of rat VMAT2 Q143A (Q01827 whole entry Q143A): as the sequence (Q01827 whole entry) above, with Q143A counted along it
Sequence of rat VMAT2 Y434A (Q01827 whole entry Y434A): as the sequence (Q01827 whole entry) above, with Y434A counted along it
T4 sequence (Q05940 whole entry): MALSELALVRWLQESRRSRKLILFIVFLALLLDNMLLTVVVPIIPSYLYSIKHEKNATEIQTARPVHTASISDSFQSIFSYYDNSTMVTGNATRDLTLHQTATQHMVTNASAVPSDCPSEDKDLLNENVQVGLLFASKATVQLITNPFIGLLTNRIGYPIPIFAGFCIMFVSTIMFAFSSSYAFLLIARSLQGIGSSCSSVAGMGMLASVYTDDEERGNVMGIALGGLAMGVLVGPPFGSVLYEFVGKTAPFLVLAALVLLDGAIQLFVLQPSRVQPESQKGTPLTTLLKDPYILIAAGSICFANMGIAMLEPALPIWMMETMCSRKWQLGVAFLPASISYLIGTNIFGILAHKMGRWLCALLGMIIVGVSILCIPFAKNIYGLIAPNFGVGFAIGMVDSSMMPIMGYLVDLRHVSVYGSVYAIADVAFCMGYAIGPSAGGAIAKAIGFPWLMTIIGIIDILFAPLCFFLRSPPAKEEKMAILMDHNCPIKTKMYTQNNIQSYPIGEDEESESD

- IC50 (rat VMAT2): 0.053 ± 0.028 µM
- FFN206 uptake relative to no compound (=1), replicate samples (rat VMAT2; Fig. 2c source data, compound 0.0017 μM): 0.9528 and 0.9756 and 1.008 and 0.9844
- ΔTm (rat VMAT2-His; Table 1, DSF screening, mean ± SD of triplicates): 9.71 ± 0.22 oC
- ΔTm at 12 µM (rat VMAT2-His; Table S2 dose response, compound 0,12 µM, read-out: ΔTm): 5.78 °C
- ΔTm at 37 µM (rat VMAT2-His; Table S2 dose response, compound 0,37 µM, read-out: ΔTm): 6.25 °C
- ΔTm at 10 µM (rat VMAT2-His; Table S2 dose response, compound 10 µM, read-out: ΔTm): 7.48 °C
- ΔTm at 30 µM (rat VMAT2-His; Table S2 dose response, compound 30 µM, read-out: ΔTm): 7.9 °C
- ΔTm at 90 µM (rat VMAT2-His; Table S2 dose response, compound 90 µM, read-out: ΔTm): 8.7 °C
- ΔTm at 270 µM (rat VMAT2-His; Table S2 dose response, compound 270 µM, read-out: ΔTm): 10.5 °C
- ΔTm at 11 µM (rat VMAT2-His; Table S2 dose response, compound 1,11 µM, read-out: ΔTm): 6.55 °C
- ΔTm at 33 µM (rat VMAT2-His; Table S2 dose response, compound 3,33 µM, read-out: ΔTm): 7.04 °C
- IC50 (rat VMAT2 Y434A): 0.126 ± 0.087 µM
- activity (VMAT2 [1]): 0.37 ± 2.83%
- IC50 (rat VMAT2 P314A): 0.234 ± 0.065 µM
- IC50 (human VMAT1): 0.023 ± 0.002 µM
- IC50 (rat VMAT2 Q143A): 0.148 ± 0.033 µM
- IC50 (human VMAT2): 0.035 ± 0.016 µM
- effect on [3H]-DTBZ binding compared with DMSO control (one-way ANOVA, p < 0.001) (VMAT2 [2]; 50 μM compound): statistically significantly effect
- [3H]-DTBZ binding relative to no compound (=1), replicate samples (VMAT2 [2]; compound 0.0017): 0.6032 and 1.156 and 0.8878 and 0.838
- [3H]-DTBZ binding relative to no compound (=1), replicate samples (VMAT2 [2]; compound 0.0051): 0.6168 and 0.8711 and 1.077 and 0.9012
- [3H]-DTBZ binding relative to no compound (=1), replicate samples (VMAT2 [2]; compound 0.0152): 0.7563 and 1.108 and 1.007
- [3H]-DTBZ binding relative to no compound (=1), replicate samples (VMAT2 [2]; compound 0.0457): 0.5988 and 0.6867 and 0.7774 and 0.6452
- [3H]-DTBZ binding relative to no compound (=1), replicate samples (VMAT2 [2]; compound 0.1372): 0.4074 and 0.4854 and 0.3736 and 0.3232
SMILES: OCc1cc(C(O)CNCCCCCCOCCCCc2ccccc2)ccc1O (stereo not shown) [Salmeterol]
- VMAT2-specific FFN206 uptake relative to DMSO (=1), replicate samples (rat VMAT2; Fig. 2a source data, 25 μM compound): 0.01652 and -0.1153 and -0.05311 and -0.0161
- FFN206 uptake relative to no compound (=1), replicate samples (rat VMAT2; Fig. 2b/2c source data, compound 0.0152 μM): 0.8683 and 0.9316 and 0.8545 and 0.8755 and 0.7872 and 0.8834 and 0.9116 and 0.9363
- FFN206 uptake relative to no compound (=1), replicate samples (rat VMAT2; Fig. 2b/2c source data, compound 0.1372 μM): 0.4384 and 0.5181 and 0.4428 and 0.5409 and 0.2594 and 0.3377 and 0.3056 and 0.4141
- FFN206 uptake relative to no compound (=1), replicate samples (rat VMAT2; Fig. 2b/2c source data, compound 0.4115 μM): 0.2986 and 0.3445 and 0.2962 and 0.3132 and 0.1258 and 0.1847 and 0.149 and 0.1946
- FFN206 uptake relative to no compound (=1), replicate samples (rat VMAT2; Fig. 2b/2c source data, compound 1.2346 μM): 0.2192 and 0.2619 and 0.2463 and 0.2625 and -0.00094 and 0.06663 and 0.05805 and 0.07997
- FFN206 uptake relative to no compound (=1), replicate samples (rat VMAT2; Fig. 2b/2c source data, compound 3.7037 μM): 0.2883 and 0.2538 and 0.257 and 0.1826 and 0.05594 and 0.1039 and 0.07279 and 0.105
- FFN206 uptake relative to no compound (=1), replicate samples (rat VMAT2; Fig. 2b/2c source data, compound 11.1111 μM): 0.2315 and 0.2175 and 0.2018 and 0.1642 and 0.02429 and 0.09314 and 0.05353 and 0.1229
- FFN206 uptake relative to no compound (=1), replicate samples (rat VMAT2; Fig. 2b/2c source data, compound 100.0000 μM): 0.2045 and 0.2463 and 0.2058 and 0.2286 and -0.0325 and 0.06428 and 0.00994 and 0.07
- [3H]-DTBZ binding relative to no compound (=1), replicate samples (VMAT2 [2]; compound 0.4115): 0.02476 and 0.03862 and 0.09845 and 0.04206
- [3H]-DTBZ binding relative to no compound (=1), replicate samples (VMAT2 [2]; compound 1.2346): 0.01432 and 0.02317 and 0.00733 and 0.04172
- [3H]-DTBZ binding relative to no compound (=1), replicate samples (VMAT2 [2]; compound 3.7037): 0.02156 and 0.02614 and 0.01787 and 0.1343
- [3H]-DTBZ binding relative to no compound (=1), replicate samples (VMAT2 [2]; compound 11.1111): -0.04565 and 0.05011 and -0.00482 and -0.01021
- [3H]-DTBZ binding relative to no compound (=1), replicate samples (VMAT2 [2]; compound 33.3333): -0.01836 and -0.0105 and -0.00518 and -0.00848
- [3H]-DTBZ binding relative to no compound (=1), replicate samples (VMAT2 [2]; compound 100.0000 (μM per methods)): 0.02729 and -0.01624 and -0.00322 and -0.00727

From paper PMC9684503 (Communications Biology, 2022)
